Read-outs that look alike come from different tables or passages of the source.
Experiments:
[1] = system: A. baumannii 14B0091 (Acinetobacter sp., BCRC number 14B0091)
Description: (§1) The antibacterial and salt-resistant activity of the peptides was tested using Escherichia coli (ATCC 25922), Pseudomonas aeruginosa Migula (ATCC 27853), Acinetobacter sp. (BCRC number 14B0091, BCRC number 14B0097, and BCRC number 14B0100), and Staphylococcus aureus sp. strains (ATCC 25923, ATCC 33591, ATCC 33592, ATCC 33593, and ATCC 6538). All bacteria were obtained from the Food Industry Research and Development Institute (Hsinchu, Taiwan) and cultured in sterilized Müller-Hinton (MH) broth at 37 °C and 200 rpm for 8 h. The inoculum concentrations were determined by measuring the optical density at 600 nm (OD 600 = 1, approximately 10^8 CFU/mL) using an Ultrospec 2100 pro UV-Visible spectrophotometer (Biochrom Ltd., Cambridge, UK) after 8 h of culture.
(§2) The antibacterial activities of the peptides in Müller-Hinton (MH) broth and modified LYM broth were determined using the standard broth microdilution method as per Clinical and Laboratory Standards Institute (CLSI) guidelines. The LYM broth was prepared with specific components and adjusted to different conditions, including varying concentrations of NaCl and MgCl2, and different pH levels. To prepare the LYM broth, 5.4 mM KCl, 5.6 mM Na2HPO4, 0.5 mM MgSO4, and 1.0 mM sodium citrate were added. Additionally, 0.4 mg of ZnCl2, 2.0 mg of FeCl3·6H2O, 0.1 mg of CuSO4·5H2O, 0.1 mg of MnSO4·H2O, 0.1 mg of Na2B4O7∙10H2O, 700 mg of amino acid mixtures without tryptophan (Takara Bio Inc., San Jose, CA, USA), and 20 mg of L-tryptophan were added per liter of medium. The pH was adjusted to 7.4, and a vitamin mixture (100X, Sigma) and glucose concentration of 2% were added. For different conditions of LYM broth, NaCl concentrations of 300, 200, 150, and 50 mM, MgCl2 concentrations of 2.5, 1.5, and 0.5 mM, and pH levels of 6.5, 5.5, and 4.5 were adjusted. Bacterial strains were incubated in MH broth overnight, regrown, and diluted to a final concentration of 5 × 10^5 CFU/mL. Peptides were added to each well at final concentrations of 50, 25, 12.5, 6.25, 3.13, 1.56, and 0.78 µg/mL, and 99 µL of diluted microbes was loaded into each well of a polypropylene 96-well plate. […] The Morpheus HeatMap software (https://software.broadinstitute.org/morpheus/) was used to display MIC values on a color scale. All experiments were independently repeated three times.

[2] = system: A. baumannii 14B0097 (Acinetobacter sp., BCRC number 14B0097)
Description: as §1, §2

[3] = system: Escherichia coli (ATCC 25922)
Description: as §1, §2

[4] = system: Pseudomonas aeruginosa Migula (ATCC 27853)
Description: as §1, §2

S. aureus ATCC 25923 = system: S. aureus ATCC 25923
Description: as §1, §2

S. aureus ATCC 6538 = system: S. aureus ATCC 6538
Description: as §1, §2

Gram-negative bacteria = experiment: Geometric mean MIC and therapeutic index, Gram-negative bacteria; type: cell-based; details: Gram-negative bacteria
Description: (§3) In this study, we aimed to investigate the potential of W5K series peptides for therapeutic use. To evaluate their efficacy for antibacterial therapy, we used the Therapeutic Index (TI) as a measure of their cell selectivity. The TI was calculated as the ratio of the concentration causing 10% hemolysis of human red blood cells (HC10) to the geometric mean minimum inhibitory concentration (GM) of the peptides against both Gram-negative and Gram-positive bacteria. This parameter was used to quantitatively assess the balance between antibacterial potency and cytotoxicity among the W5K derivatives.
as §2

[5] = system: Both Gram-positive and -negative bacteria; experiment: Geometric mean MIC, therapeutic index and fold changes of MIC, whole panel of strains; type: cell-based; details: for weakening of antibacterial efficacy (MIC): LYM broth
Description: as §3, §2

[6] = LYM broth, 0 mM NaCl, 16 h, 37 °C
[7] = LYM broth, 50 mM NaCl, 16 h, 37 °C
[8] = LYM broth, 100 mM NaCl, 16 h, 37 °C
[9] = LYM broth, 200 mM (NaCl), 16 h, 37 °C
[10] = LYM broth, 300 mM (NaCl), 16 h, 37 °C
[11] = MH broth, 5 × 10^5 CFU/mL, 16 h, 37 °C, repeated three times

In the case of Ac-KKKWRKWLKWLAK-NH2 [Peptide W5K12], the MIC [1, 6] was 1.56 µg/mL, the MIC ([1]; LYM broth, 0.5 mM MgCl2) was 1.56 µg/mL and the MIC ([1]; LYM broth, 1.5 mM MgCl2) was 1.56 µg/mL. The MIC ([1]; LYM broth, 2.5 mM MgCl2) was 1.56 µg/mL, the MIC [1, 7] was 1.56 µg/mL and the MIC [1, 8] was 1.56 µg/mL. The MIC [1, 9] was 1.56 µg/mL, the MIC [1, 10] was 3.13 µg/mL and the MIC ([1]; LYM broth, pH 4.5) was 3.13 µg/mL. The MIC ([1]; LYM broth, pH 5.5) was 3.13 µg/mL, the MIC ([1]; LYM broth, pH 6.5) was 1.56 µg/mL and the MIC [1, 11] was 1.56 µg/mL. It also gave an MIC [2, 6] of 1.56 µg/mL, an MIC ([2]; LYM broth, 0.5 mM MgCl2) of 1.56 µg/mL and an MIC ([2]; LYM broth, 1.5 mM MgCl2) of 1.56 µg/mL. For the same substance, the MIC ([2]; LYM broth, 2.5 mM MgCl2) was 3.13 µg/mL, the MIC [2, 7] was 1.56 µg/mL and the MIC [2, 8] was 1.56 µg/mL. For the same substance, the MIC [2, 9] was 1.56 µg/mL, the MIC [2, 10] was 3.13 µg/mL and the MIC ([2]; LYM broth, pH 4.5) was 3.13 µg/mL. The MIC ([2]; LYM broth, pH 5.5) was 3.13 µg/mL, the MIC ([2]; LYM broth, pH 6.5) was 1.56 µg/mL and the MIC [2, 11] was 1.56 µg/mL. It also gave an MIC [3, 6] of 1.56 µg/mL, an MIC ([3]; LYM broth, 0.5 mM MgCl2) of 3.13 µg/mL and an MIC ([3]; LYM broth, 1.5 mM MgCl2) of 3.13 µg/mL. The MIC ([3]; LYM broth, 2.5 mM MgCl2) was 3.13 µg/mL, the MIC [3, 7] was 3.13 µg/mL and the MIC [3, 8] was 3.13 µg/mL. The MIC [3, 9] was 6.25 µg/mL, the MIC [3, 10] was 12.5 µg/mL and the MIC ([3]; LYM broth, pH 4.5) was 1.56 µg/mL. For the same substance, the MIC ([3]; LYM broth, pH 5.5) was 1.56 µg/mL, the MIC ([3]; LYM broth, pH 6.5) was 1.56 µg/mL and the MIC [3, 11] was 3.13 µg/mL. The MIC [4, 6] was 1.56 µg/mL, the MIC ([4]; LYM broth, 0.5 mM MgCl2) was 1.56 µg/mL and the MIC ([4]; LYM broth, 1.5 mM MgCl2) was 1.56 µg/mL. For the same substance, the MIC ([4]; LYM broth, 2.5 mM MgCl2) was 3.13 µg/mL, the MIC [4, 7] was 1.56 µg/mL and the MIC [4, 8] was 3.13 µg/mL. For the same substance, the MIC [4, 9] was 6.25 µg/mL, the MIC [4, 10] was 12.5 µg/mL and the MIC ([4]; LYM broth, pH 4.5) was 1.56 µg/mL. It also gave an MIC ([4]; LYM broth, pH 5.5) of 1.56 µg/mL, an MIC ([4]; LYM broth, pH 6.5) of 1.56 µg/mL and an MIC [4, 11] of 3.13 µg/mL. The MIC (S. aureus ATCC 25923; [6]) was 1.56 µg/mL, the MIC (S. aureus ATCC 25923; LYM broth, 0.5 mM MgCl2) was 1.56 µg/mL and the MIC (S. aureus ATCC 25923; LYM broth, 1.5 mM MgCl2) was 3.13 µg/mL. For the same substance, the MIC (S. aureus ATCC 25923; LYM broth, 2.5 mM MgCl2) was 3.13 µg/mL, the MIC (S. aureus ATCC 25923; [7]) was 3.13 µg/mL and the MIC (S. aureus ATCC 25923; [8]) was 3.13 µg/mL. The MIC (S. aureus ATCC 25923; [9]) was 6.25 µg/mL, the MIC (S. aureus ATCC 25923; [10]) was 12.5 µg/mL and the MIC (S. aureus ATCC 25923; LYM broth, pH 4.5) was 3.13 µg/mL. It also gave an MIC (S. aureus ATCC 25923; LYM broth, pH 5.5) of 3.13 µg/mL, an MIC (S. aureus ATCC 25923; LYM broth, pH 6.5) of 1.56 µg/mL and an MIC (S. aureus ATCC 25923; [11]) of 3.13 µg/mL. It also gave an MIC (S. aureus ATCC 6538; [6]) of 1.56 µg/mL, an MIC (S. aureus ATCC 6538; LYM broth, 0.5 mM MgCl2) of 1.56 µg/mL and an MIC (S. aureus ATCC 6538; LYM broth, 1.5 mM MgCl2) of 1.56 µg/mL. For the same substance, the MIC (S. aureus ATCC 6538; LYM broth, 2.5 mM MgCl2) was 1.56 µg/mL, the MIC (S. aureus ATCC 6538; [7]) was 1.56 µg/mL and the MIC (S. aureus ATCC 6538; [8]) was 3.13 µg/mL. The MIC (S. aureus ATCC 6538; [9]) was 6.25 µg/mL, the MIC (S. aureus ATCC 6538; [10]) was 12.5 µg/mL and the MIC (S. aureus ATCC 6538; LYM broth, pH 4.5) was 3.13 µg/mL. The MIC (S. aureus ATCC 6538; LYM broth, pH 5.5) was 1.56 µg/mL, the MIC (S. aureus ATCC 6538; LYM broth, pH 6.5) was 1.56 µg/mL and the MIC (S. aureus ATCC 6538; [11]) was 3.13 µg/mL. The “GM G− (geometric mean of the MIC values)” value (Gram-negative bacteria; MH broth, MIC >50 µg/mL counted as 100 µg/mL) was 2.4 µg/mL, the “Therapeutic Index (TI) G−” value (Gram-negative bacteria; HC10/GM) was 17.6 and the “GM G−/+ (geometric mean of the MIC values)” value ([5]; Both Gram-positive and -negative bacteria, MH broth, MIC >50 µg/mL counted as 100 µg/mL) was 3.4 µg/mL. For the same substance, the “Therapeutic Index (TI) G−/+” value ([5]; HC10/GM, both Gram-positive and -negative bacteria) was 12.4, the “weakening of antibacterial efficacy (MIC)” value ([5]; 300 mM NaCl) was “up to 4 fold” and the “weakening of antibacterial efficacy (MIC)” value ([5]; MgCl2 rising above 0.5 mM) was “up to 2 fold”.

Reference: paper PMC12649549, “Sequence Permutation Generated Lysine and Tryptophan-Rich Antimicrobial Peptides with Enhanced Therapeutic Index” (Antibiotics, 2025)
